# Results published in ChEMBL document CHEMBL6177931, “Exploring diverse frontiers: Advancements of bioactive 4-aminoquinoline-based molecular hybrids in targeted therapeutics and beyond” (Eur J Med Chem, 2024).
# How the values were obtained:
# [1] = system: Candida albicans; assay: Antifungal activity against Candida albicans incubated for 48 to 72 hrs by broth microdilution method; format: functional; conditions: time 48-72 hrs
# [2] = system: Aspergillus niger; assay: Antifungal activity against Aspergillus niger incubated for 48 to 72 hrs by broth microdilution method; format: functional; conditions: time 48-72 hrs
# [3] = system: Aspergillus fumigatus; assay: Antifungal activity against Aspergillus fumigatus incubated for 48 to 72 hrs by broth microdilution method; format: functional; conditions: time 48-72 hrs
# [4] = molecular target: Acetylcholinesterase (Homo sapiens, UniProt P22303); assay: Inhibition of AChE (unknown origin)
# [5] = system: MDA-MB-231; assay: Anticancer activity against human MDA-MB-231 cells; format: functional, cell-based
# [6] = system: Mycobacterium tuberculosis; assay: Antitubercular activity against Mycobacterium tuberculosis H37Rv assessed as inhibition of visible bacterial growth incubated for 7 days by broth microdilution method; format: functional; conditions: 168 h, time 7 day
# [7] = system: HepG2; assay: Cytotoxicity against human HepG2 cells assessed as cell viability incubated for 24 hrs by MTT assay relative to control; format: functional
# [8] = Selectivity index, ratio of IC50 for cytotoxicity against African green monkey Vero cells to IC50 for antiplasmodial activity against D-sorbitol synchronized chloroquine-resistant Plasmodium falciparum W2; format: toxicity, cell-based; conditions: read-out: Ratio IC50
# [9] = system: Mus musculus; assay: Anti-inflammatory activity against carrageenan-induced paw edema mouse model assessed as reduction in edema measured after 1 hrs relative to control; format: functional; set-up: scale not given: the % may be the effect or the level left
# [10] = system: Mus musculus; assay: Anti-inflammatory activity against carrageenan-induced paw edema mouse model assessed as reduction in edema measured after 2 hrs relative to control; format: functional; set-up: scale not given: the % may be the effect or the level left
# [11] = system: Mus musculus; assay: Anti-inflammatory activity against carrageenan-induced paw edema mouse model assessed as reduction in edema measured after 3 hrs relative to control; format: functional; set-up: scale not given: the % may be the effect or the level left
# [12] = system: Pyricularia grisea; assay: Antifungal activity against Pyricularia grisea incubated for 72 hrs by mycelium growth rate method; format: functional, organism-based
# [13] = system: Alternaria alternata; assay: Antifungal activity against Alternaria alternata incubated for 72 hrs by mycelium growth rate method; format: functional, organism-based
# [14] = system: Curvularia lunata; assay: Antifungal activity against Curvularia lunata incubated for 72 hrs by mycelium growth rate method; format: functional, organism-based
# [15] = system: Leishmania amazonensis; assay: Antileishmanial activity against Leishmania amazonensis promastigotes infected in mouse macrophages assessed as inhibition of parasite growth incubated for 72 hrs by giemsa staining based analysis; format: functional, organism-based; conditions: Macrophage
# [16] = Selectivity index, ratio of CC50 for cytotoxicity against mouse macrophage to IC50 for antileishmanial activity against Leishmania amazonensis amastigotes infected in mouse macrophages assessed as inhibition of parasite growth; format: toxicity, cell-based; conditions: read-out: Ratio CC50/IC50
# [17] = system: Leishmania amazonensis; assay: Antileishmanial activity against Leishmania amazonensis amastigotes infected in mouse macrophages assessed as inhibition of parasite growth incubated for 72 hrs by giemsa staining based analysis; format: functional, organism-based; conditions: Macrophage
# [18] = system: Plasmodium falciparum; assay: Antiplasmodial activity against chloroquine sensitive Plasmodium falciparum NF54 incubated for 48 hrs by lactate dehydrogenase assay; format: functional, organism-based; conditions: NF54, Erythrocyte
# [19] = molecular target: Cholinesterases; ACHE & BCHE (Homo sapiens) (UniProt P06276+P22303); assay: Selectivity ratio of IC50 for inhibition of recombinant human AchE to IC50 for inhibition of human BchE; format: protein assay
# [20] = Growth inhibition of human MCF-10A cells incubated for 48 hrs by SRB assay; format: toxicity, cell-based
# [21] = system: MDA-MB-468; assay: Growth inhibition of human MDA-MB-468 cells incubated for 48 hrs by SRB assay; format: functional
# [22] = Growth inhibition of human 184B5 cells incubated for 48 hrs by SRB assay; format: toxicity, cell-based
# [23] = system: MDA-MB-231; assay: Growth inhibition of human MDA-MB-231 cells incubated for 48 hrs by SRB assay; format: functional
# [24] = system: MCF7; assay: Growth inhibition of human MCF7 cells incubated for 48 hrs by SRB assay; format: functional
# [25] = system: HepG2; assay: Anticancer activity against human HepG2 cells incubated for 48 hrs by MTT assay; format: functional, cell-based; conditions: HepG2, 48 h
# [26] = system: MCF7; assay: Anticancer activity against human MCF7 cells incubated for 48 hrs by MTT assay; format: functional, cell-based; conditions: MCF7, 48 h
# [27] = system: HL-60; assay: Anticancer activity against human HL-60 cells incubated for 48 hrs by MTT assay; format: functional, cell-based; conditions: HL-60, 48 h
# [28] = system: HeLa; assay: Anticancer activity against human HeLa cells incubated for 48 hrs by MTT assay; format: functional, cell-based
# Cholinesterases; ACHE & BCHE (Homo sapiens), sequence (P06276 whole entry, looked up): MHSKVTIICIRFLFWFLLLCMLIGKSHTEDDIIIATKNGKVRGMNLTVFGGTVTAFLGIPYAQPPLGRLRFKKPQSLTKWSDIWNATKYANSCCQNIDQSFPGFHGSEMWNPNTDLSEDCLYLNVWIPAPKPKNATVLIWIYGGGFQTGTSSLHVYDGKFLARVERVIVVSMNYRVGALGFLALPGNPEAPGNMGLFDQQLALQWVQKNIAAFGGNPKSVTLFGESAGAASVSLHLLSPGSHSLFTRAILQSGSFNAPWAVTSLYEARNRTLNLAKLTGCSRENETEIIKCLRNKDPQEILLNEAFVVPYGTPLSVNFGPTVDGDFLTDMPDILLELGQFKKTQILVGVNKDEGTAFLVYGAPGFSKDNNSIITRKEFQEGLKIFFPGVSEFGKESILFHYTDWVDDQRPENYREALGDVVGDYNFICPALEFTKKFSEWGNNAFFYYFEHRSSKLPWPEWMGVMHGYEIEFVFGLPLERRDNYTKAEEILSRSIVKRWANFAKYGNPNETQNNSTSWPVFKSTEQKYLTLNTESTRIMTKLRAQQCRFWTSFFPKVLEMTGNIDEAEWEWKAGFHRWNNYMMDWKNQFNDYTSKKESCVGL
# Cholinesterases; ACHE & BCHE (Homo sapiens), sequence (P22303 whole entry, looked up): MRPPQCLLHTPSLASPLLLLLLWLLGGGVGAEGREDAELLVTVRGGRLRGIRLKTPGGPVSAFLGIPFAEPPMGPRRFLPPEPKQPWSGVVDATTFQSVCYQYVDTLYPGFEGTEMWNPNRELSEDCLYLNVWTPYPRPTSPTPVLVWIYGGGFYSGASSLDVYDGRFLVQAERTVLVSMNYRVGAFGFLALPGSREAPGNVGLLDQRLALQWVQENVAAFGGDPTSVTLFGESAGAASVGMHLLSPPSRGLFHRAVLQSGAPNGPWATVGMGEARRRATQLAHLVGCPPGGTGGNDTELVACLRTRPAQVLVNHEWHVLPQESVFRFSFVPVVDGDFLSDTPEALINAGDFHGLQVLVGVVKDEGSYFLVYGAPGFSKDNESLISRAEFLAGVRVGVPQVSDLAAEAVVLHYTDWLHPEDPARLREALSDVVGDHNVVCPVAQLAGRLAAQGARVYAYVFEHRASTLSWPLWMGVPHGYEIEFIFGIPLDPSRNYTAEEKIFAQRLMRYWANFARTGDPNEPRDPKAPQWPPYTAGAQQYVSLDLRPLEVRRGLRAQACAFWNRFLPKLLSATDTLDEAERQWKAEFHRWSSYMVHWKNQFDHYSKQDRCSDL
# Acetylcholinesterase, sequence (P22303 whole entry): as the sequence (P22303 whole entry, looked up) above
structure (smiles),measurement,setting,value
NCCCNc1nc(NCCCN)nc(NC(=S)NNc2ccnc3cc(Cl)ccc23)n1,MIC,[1],8 µg/mL
same,MIC,[2],8 µg/mL
same,MIC,[3],8 µg/mL
O=P(NCCCCCCCCCCCCNc1c2c(nc3ccccc13)CCCC2)(Oc1ccccc1)Oc1ccccc1,IC50,[4],24300 µM
C[C@H]1[C@H](C)CC[C@]2(C(=O)OCCOCCNc3ccnc4cc(Cl)ccc34)CC[C@]3(C)C(=CC[C@@H]4[C@@]5(C)CC[C@H](O)C(C)(C)[C@@H]5CC[C@]43C)[C@H]12,IC50,[5],85.6 µg/mL
CC(CNc1ccnc2cc(Cl)ccc12)NC(=O)Nc1nc2ccc(C(F)(F)F)cc2s1 (stereo not drawn),MIC,[6],0.968 µM
same,Activity,[7],100%
CCN(CC)c1ccc2c(c1)C(=O)N(CCC(=O)NCCNc1ccnc3cc(Cl)ccc13)C2=O,selectivity ratio,[8],> 2000
O=C(CN1CCN(c2ccccc2)CC1)N1CCN(c2ccnc3cc(Cl)ccc23)CC1,Activity,[9],34%
same,Activity,[10],50%
same,Activity,[11],64%
Cl.Clc1ccc(Nc2cc(-c3ccccc3)nc3ccccc23)cc1,EC50,[12],14.4 µg/mL
same,EC50,[13],15.6 µg/mL
same,EC50,[14],13.3 µg/mL
CCCCCCCCCCn1cc(CNCCNc2ccnc3cc(Cl)ccc23)nn1,IC50,[15],5.7 µM
same,selectivity ratio,[16],16
same,IC50,[17],1.1 µM
O=C(/C=C/c1ccc(Cl)cc1)c1ccc(S(=O)(=O)NCCCNc2ccnc3cc(Cl)ccc23)cc1,IC50,[18],0.1 µM
CC(CCNCCC12CC3CC(CC(C3)C1)C2)Nc1ccnc2cc(Cl)ccc12 (stereo not drawn),Ratio IC50,[19],10
O=[N+]([O-])c1ccc(S(=O)(=O)N2CCN(c3ccnc4cc(Cl)ccc34)CC2)c([N+](=O)[O-])c1,GI50 at 48 h,[20],12.3 µM
same,GI50,[21],0.7 µM
same,GI50 at 48 h,[22],9 µM
same,GI50,[23],3.4 µM
same,GI50,[24],2.3 µM
S=C(NNc1ccnc2cc(Cl)ccc12)Nc1nc(Nc2ccc(Cl)cc2)nc(Nc2ccc(Cl)cc2)n1,IC50,[25],45.3 µM
same,IC50,[26],32.3 µM
same,IC50,[27],26.3 µM
same,IC50,[28],32.4 µM
